pEC50, pIC50: −log10 of the molar value.
What was measured:
Ishikawa cells = assay: Ishikawa cell alkaline phosphatase assay; type: cell-based, human; conditions: for pEC50: reference standards, read-out: ED50 values (95% C.I.), estrogenic activity by the alkaline phosphatase method; for % Activation: compound alone, percent of response related to 1 nM 17β-estradiol; for % Activation with 1 nM 17β-estradiol: compound + 1 nM 17β-estradiol (antiestrogen test)
Experimental: Cells were treated for 48 h prior to assay. […] Sample population for at each dose was n=8. […] Plates are placed at -80° C. for a minimum of 15 minutes. Plates are thawed at 37° C. followed by the addition of 150 μL of 0.1 M Tris-HCl, pH 9.8, containing 4 mM para-nitrophenylphosphate (pNPP) to each well (final concentration, 3 mM pNPP). Absorbance and slope calculations were made using the […] Application program (Bio-Tek Instruments, Inc., Winooski, Vt.). […] The four listed in the following were used as reference standards: A description of these methods is described by Holinka, […]., Kuramoto, H. and Gurpide, E. (1986) Effects of steroid hormones and antisteroids on alkaline phosphatase activity in human endometrial cancer cells (Ishikawa Line). Cancer Research, 46:2771-2774, and by […]. and […] simple and sensitive microtiter plate estrogen bioassay based on stimulation alkaline phosphatase in Ishikawa cells; […] Endocrinology, 6:2757-2762.

[1] = system: Female Sprague Dawley CD rats, ovx; assay: 6-week ovariectomized rat model; type: in vivo; conditions: 2 μg/rat, s.c., following 6 weeks of treatment, mean ± SEM
Description: Method No. 20 6-Week Ovariectomized Rat Model
Female Sprague Dawley CD rats, ovx or sham ovx, were obtained 1 day after surgery from Taconic Farm (weight range 240–275 g). They were housed 3 or 4 rats/cage in a room on a 14/10 (light/dark) schedule and provided with food (Purina 500 rat chow) and water ad libitum. Treatment for all studies began 1 day after the animals arrival and dosed 5 or 7 days per week as indicated for 6 weeks. A group of age matched sham operated rats not receiving any treatment served as an intact, estrogen replete control group for each study. All treatments were prepared in 1% tween 80 in normal saline at defined concentrations so that the treatment volume was 0.1 mL/100 g body weight. 17-beta estradiol was dissolved in corn oil (20 uG/mL) and delivered subcutaneously, 0.1 mL/rat. All dosages were adjusted at three week intervals according to group mean body weight measurements.
Five weeks after the initiation of treatment and one week prior to the termination of the study, each rat was evaluated for bone mineral density (BMD). The BMD's of the proximal tibiae (PT) and fourth lumbar vertabrae (L4) were measured in anesthetized rats using a dual energy X-ray absorptiometer (Eclipse XR-26, Norland Corp. Ft. Atkins, Wis.). […] Total cholesterol is determined using a Boehringer-Mannheim Hitachi 911 clinical analyzer using the Cholesterol/HP kit. […]

[2] = system: Immature Sprague-Dawley rats; assay: Rat uterotrophic/antiuterotrophic bioassay; type: in vivo; conditions: daily ip; for Uterine wt mg 100 uG cmpd + 1 uG 17β-estradiol: 100 uG compound + 1 uG 17β-estradiol; for Uterine wt mg 100 uG cmpd: 100 uG compound, immature female rats, uterine wet weight
Experimental: Method No. 19 Rat Uterotrophic/Antiuterotrophic Bioassay
The estrogenic and antiestrogenic properties of the compounds were determined in an immature rat uterotrophic assay (4 day) that (as described previously by L. J. Black and R. L. Goode, Life Sciences, 26, 1453(1980)). Immature Sprague-Dawley rats (female, 18 days old) were tested in groups of six. […] On day 4 the animals were sacrificed by CO2 asphyxiation and their uteri were removed and stripped of excess lipid, any fluid removed and the wet weight determined. A small section of one horn was submitted for histology and the remainder used to isolate total RNA in order to evaluate complement component 3 gene expression.

estrogen receptor [3] = molecular target: T1, estrogen receptor (Homo sapiens, UniProt P03372); assay: 2X VIT ERE infection (luciferase) assay; type: cell-based; parameters: expressed in transfected cells; host or cells: Chinese Hamster Ovary cells (CHO), stably transfected; conditions: for Infection Luciferase Activity 1 uM + 17β estradiol: 1 uM compound + 1 nM 17β-estradiol (test for estrogen antagonism); for Infection Luciferase Activity 1 uM: 1 uM compound, percentage of activity as compared to 17β-estradiol
T1 sequence (P03372 1-595): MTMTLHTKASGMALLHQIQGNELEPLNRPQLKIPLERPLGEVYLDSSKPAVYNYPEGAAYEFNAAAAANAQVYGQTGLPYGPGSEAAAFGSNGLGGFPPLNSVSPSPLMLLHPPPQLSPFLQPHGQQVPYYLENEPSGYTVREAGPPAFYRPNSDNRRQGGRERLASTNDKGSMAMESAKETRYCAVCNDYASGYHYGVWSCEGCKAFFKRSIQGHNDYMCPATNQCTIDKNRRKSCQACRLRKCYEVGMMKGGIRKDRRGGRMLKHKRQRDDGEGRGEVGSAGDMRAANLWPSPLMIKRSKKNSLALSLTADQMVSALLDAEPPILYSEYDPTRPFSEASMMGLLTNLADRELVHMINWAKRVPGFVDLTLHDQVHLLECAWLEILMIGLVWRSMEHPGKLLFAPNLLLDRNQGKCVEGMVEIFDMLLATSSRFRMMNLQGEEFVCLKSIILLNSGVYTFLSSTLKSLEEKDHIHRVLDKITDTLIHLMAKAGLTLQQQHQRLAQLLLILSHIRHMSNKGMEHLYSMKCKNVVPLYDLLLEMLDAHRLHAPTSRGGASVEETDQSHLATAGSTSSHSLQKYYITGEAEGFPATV
Experimental: Method No. 18 2X VIT ERE Infection Assay Cell Maintenance and Treatment
Chinese Hamster Ovary cells (CHO) which had been stably transfected with the human estrogen receptor were maintained in DMEM+10% fetal bovine serum (FBS). 48 h prior to treatment the growth medium was replaced with DMEM lacking phenol red +10% dextran coated charcoal stripped FBS (treatment medium). Cells were plated at a density of 5000 cells/well in 96-well plates containing 200 µL of medium/well.
Reporter DNA (Promega plasmid pGL2 containing two tandem copies of the vitellogenin ERE in front of the minimal thymidine kinase promoter driving the luciferase gene) was combined with the B-galactosidase expression plasmid pCH110 (Pharmacia) and carrier DNA (pTZ18U) in the following ratio:
20 uL of this mixture was added to each well of cells and remained on the cells for 16 h. […] Each treatment condition was performed on 8 wells (n=8) which were incubated for 24 h prior to the luciferase assay.
After removing the PBS, 25 uL of Promega lysis buffer was added to each well and allowed to stand at room temperature for 15 min, followed by 15 min at −80° C. and 15 min at 37° C. 20 uL of lysate was transferred to an opaque 96 well plate for luciferase activity evaluation and the remaining lysate (5 uL) was used for the B-galactosidase activity evaluation (normalize transfection). The luciferan substrate (Promega) was added in 100 uL aliquots to each well automatically by the luminometer and the light produced (relative light units) was read 10 seconds after addition.
To the remaining 5 uL of lysate 45 uL of PBS was added. Then 50 uL of Promega B-galactosidase 2× assay buffer was added, mixed well and incubated at 37° C. for 1 hour. A plate containing a standard curve (0.1 to 1.5 milliunits in triplicate) was set up for each experimental run. The plates were analyzed on a Molecular Devices spectrophotometric plate reader at 410 nm. The optical densities for the unknown were converted to milliunits of activity by mathematical extrapolation from the standard curve.
The luciferase data was generated as relative light units (RLUs) accumulated during a 10 second measurement and automatically transferred to a JMP (SAS Inc) file where background RLUs were subtracted. The B-galactosidase values were automatically imported into the file and these values were divided into the RLUs to normalize the data. The mean and standard deviations were determined from a n=8 for each treatment. […] These techniques are described by Tzukerman, M. T., Esty, A., Santiso-Mere, D., Danielian, P., Parker, M. G., Stein, R. B., Pike, J. W. and McDonnel, D. P. (1994).

estrogen receptor [4] = molecular target: T1, estrogen receptor; assay: In vitro estrogen receptor binding assay ([3H]-17β-estradiol competition); parameters: expressed in transfected cells; host or cells: CHO cells (100,000 g cytosol); conditions: read-out: Receptor Binding IC50's
Experimental: In Vitro Estrogen Receptor Binding Assay
CHO cells overexpressing the estrogen receptor were grown in 150 mm^2 dishes in DMEM+10% dextran coated charcoal, stripped fetal bovine serum. The plates were washed twice with PBS and once with 10 mM Tris-HCl, pH 7.4, 1 mM EDTA. Cells were harvested by scraping the surface and then the cell suspension was placed on ice. Cells were disrupted with a hand-held motorized tissue grinder using two, 10-second bursts. […] The cytosol was then frozen and stored at −80° C. Protein concentration of the cytosol was estimated using the BCA assay with reference standard protein.
100 uG/100 uL of the receptor preparation was aliquoted per well. […] The plate was incubated at room temperature for 2.5 h. […] 200 uL of the supernatant solution was then removed for scintillation counting. Samples were counted to 2% or 10 minutes, whichever occurs first. […] Also, wells containing radioactivity but no cytosol were processed with charcoal to estimate unremovable DPM of [^3H]
Counts per minute (CPM) of radioactivity were automatically converted to disintegrated per minute (DPM) by the Beckman LS 7500 Scintillation Counter using a set of quenched standards to generate a H No. for each sample.
For the generation of IC50 curves, % binding is plotted vs compound. […] For a description of these methods, see Hulme, E. C., ed. […] Receptor-Ligand Interactions: A Practical Approach. IRL Press, New York. (see especially chapter 8).

Row | Structure (SMILES) | % Activation with 1 nM 17β-estradiol (Ishikawa cells) | Uterine wt mg 100 uG cmpd + 1 uG 17β-estradiol [2] | Uterine wt mg 100 uG cmpd [2] | further results
1 | C[C@]12CC[C@@H]3c4ccc(O)cc4CC[C@H]3[C@@H]1CC[C@H]2O [17α-estradiol] | – | – | – | pEC50 (Ishikawa cells): 8.85
2 | C[C@]12CC[C@@H]3c4ccc(O)cc4CC[C@H]3[C@@H]1CC[C@@H]2O [17β-estradiol] | – | – | – | % Activation (Ishikawa cells): 100%; pEC50 (Ishikawa cells): 10.52; Cholesterol [1]: 95.5 ± 3.9 mg/dL
3 | Cc1c(-c2ccc(O)cc2)n(Cc2ccc(OCCN3CCCCCC3)cc2)c2ccc(O)cc12 [Example No. 98, 1-[4-(2-Azepan-1-yl-ethoxy)-benzyl]-2-(4-hydroxy-phenyl)-3-methyl-1H-indol-5-ol] | activity (1% with 1 nM 17β-estradiol) | – | – | –
4 | Cc1c(-c2ccc(O)cc2)n(Cc2ccc(OCCN(C)C)cc2)c2ccc(O)cc12 [Example No. 100, 2-(4-Hydroxy-phenyl)-3-methyl-1-[4-(2-dimethyl-1-yl-ethoxy)-benzyl]-1H-indol-5-ol] | – | 68.7 mg | 59.9 mg | –
5 | Cc1c(-c2ccccc2)n(Cc2ccc(OCCN3CCCCC3)cc2)c2ccccc12 [compound 85, 4-{3-Methyl-1-[4-(2-piperidin-1-yl-ethoxy)-benzyl]-1H-indole}] | – | 92.4 mg | 41.1 mg | Infection Luciferase Activity 1 uM + 17β estradiol (estrogen receptor [3]): 43%; Infection Luciferase Activity 1 uM (estrogen receptor [3]): −2%
6 | CCN(CC)CCOc1ccc(Cn2c(-c3ccc(O)cc3)c(C)c3cc(O)ccc32)cc1 [compound 101, 2-(4-Hydroxy-phenyl)-3-methyl-1-[4-(2-diethyl-1-yl-ethoxy)-benzyl]-1H-indol-5-ol] | – | 71.0 mg | 65.1 mg | –
7 | Cc1c(-c2ccc(OC3CCCC3)cc2)n(Cc2ccc(OCCN3CCCCC3)cc2)c2ccc(O)cc12 [compound 122, 2-(4-Cyclopenyloxy-phenyl)-3-methyl-1-[4-(2-piperidin-1-yl-ethoxy)-benzyl]-1H-indol-5-ol] | – | 38.7 mg | 46.7 mg | Infection Luciferase Activity 1 uM + 17β estradiol (estrogen receptor [3]): 5%; Infection Luciferase Activity 1 uM (estrogen receptor [3]): 1%; pIC50 (estrogen receptor [4]): 7.10
8 | O=C(c1ccc(OCCN2CCCCC2)cc1)c1c(-c2ccc(O)cc2)sc2cc(O)ccc12 [raloxifene] | activity (5% with 1 nM 17β-estradiol) | – | – | –
9 | CC/C(=C(\c1ccccc1)c1ccc(OCCN(C)C)cc1)c1ccccc1 [tamoxifen] | activity (45% with 1 nM 17β-estradiol) | – | 71.4 mg | % Activation (Ishikawa cells): 0%
